Where two headings read alike, the source gives them in different places.
How the values were obtained:
SD rats [1] = assay: animal or person; assay type: in vivo, rat; conditions: iv; for minimal effective dose: Rattus norvegicus, read-out: Minimal effective anesthetic dose(mg/kg); for Onset time / Righting Reflex Duration / Sedation Duration: rat, in vivo
SD rats [2] = assay: animal or person; assay type: in vivo; conditions: Rattus norvegicus, iv, read-out: Minimal effective analgesic dose(mg/kg)

Row | Structure (SMILES) | minimal effective dose (SD rats [1]) [mg/kg] | Onset time (SD rats [1]) [min] | Righting Reflex Duration (SD rats [1]) [min] | Sedation Duration (SD rats [1]) [min] | minimal effective dose (SD rats [2]) [mg/kg]
1 | CCC(=O)N(c1ccccc1)C1CCN(c2cc(C(C)C)c(O)c(C(C)C)c2)CC1 [Cpd-1] | < 5 | 0.38 to 0.62 | 6.27 to 10.78 | 19.02 to 22.97 | < 5
2 | CCCC(=O)N(c1ccccc1)C1CCN(c2cc(C(C)C)c(O)c(C(C)C)c2)CC1 [Cpd-13] | 5 to 10 | 0.35 | 20.27 | 41.57 | 5 to 10
3 | CCOC(=O)C1(c2ccccc2)CCN(c2cc(C(C)C)c(O)c(C(C)C)c2)CC1 [Cpd-21] | < 5 | 1.35 | 1.32 | 20.10 | < 5
4 | CCOC(=O)C1(c2cccs2)CCN(c2cc(C(C)C)c(O)c(C(C)C)c2)CC1 [Cpd-24] | 5 to 10 | 0.85 | 11.60 | 21.70 | 5 to 10
5 | CCOC(=O)C1(c2ccccc2)CCN(c2cc(C(C)C)c(O)c([C@H](C)C3CC3)c2)CC1 [Cpd-25] | 5 to 10 | 1.28 to 2.95 | 3.45 to 6.43 | 17.48 to 23.03 | 5 to 10
6 | CC(C)OC(=O)C1(c2ccccc2)CCN(c2cc(C(C)C)c(O)c(C(C)C)c2)CC1 [Cpd-26] | 5 to 10 | 0.98 to 1.77 | 12.33 to 28.05 | 26.52 to 182.97 | 5 to 10
7 | CCOC(=O)C1(c2ccc(Cl)cc2Cl)CCN(c2cc(C(C)C)c(O)c(C(C)C)c2)CC1 [Cpd-28] | 20 to 40 | 0.73 to 1.02 | 2.97 to 12.00 | 31.98 to 218.72 | 20 to 40
8 | CCOC(=O)C1(c2cccc(OC)c2)CCN(c2cc(C(C)C)c(O)c(C(C)C)c2)CC1 [Cpd-39] | 10 to 20 | 0.73 to 1.07 | 7.45 to 24.00 | 34.33 to 39.48 | 10 to 20
9 | COC(=O)N(c1ccccc1)N1CCN(c2cc(C(C)C)c(O)c(C(C)C)c2)CC1 [Cpd-45] | 5 to 10 | 0.38 to 0.58 | 9.45 to 21.03 | 21.22 to 30.92 | 5 to 10
10 | CCC(=O)N(c1ccccc1)N1CCN(c2cc(C(C)C)c(O)c(C(C)C)c2)CC1 [Cpd-46] | 5 to 10 | 1.58 | 2.17 | 12.95 | 5 to 10
11 | CCOC(=O)N(c1ccccc1)N1CCN(c2cc(C(C)C)c(O)c(C(C)C3CC3)c2)CC1 (centres unmarked) [Cpd-53] | < 5 | 0.47 to 1.27 | 2.00 to 37.20 | 27.75 to 167.40 | 5 to 10
12 | CCOC(=O)N(c1ccccc1)N1CCN(c2cc(C(C)C)c(O)c([C@H](C)C3CC3)c2)CC1 [Cpd-59] | 10 to 20 | 0.37 to 0.85 | 21.18 to 24.15 | 37.27 to 47.68 | –
13 | CCOC(=O)N(c1cccc(Cl)c1)N1CCN(c2cc(C(C)C)c(O)c(C(C)C)c2)CC1 [Cpd-61] | 10 to 20 | 0.55 to 1.25 | 4.15 to 41.88 | 89.98 to 162.23 | 10 to 20
14 | CCOC(=O)N(c1cccc(C)c1)N1CCN(c2cc(C(C)C)c(O)c(C(C)C)c2)CC1 [Cpd-62] | 10 to 20 | 1.15 to 2.15 | 1.22 to 17.28 | 55.48 to 85.02 | –
15 | CCOC(=O)N(c1cccc(OC)c1)N1CCN(c2cc(C(C)C)c(O)c(C(C)C)c2)CC1 [Cpd-63] | 10 to 20 | 0.18 to 0.50 | 6.92 to 33.82 | 50.33 to 193.58 | 20 to 40
16 | CCOC(=O)N(c1ccc(F)cc1)N1CCN(c2cc(C(C)C)c(O)c(C(C)C)c2)CC1 [Cpd-64] | 10 to 20 | 0.43 to 0.47 | 3.70 to 7.22 | 26.92 to 42.58 | –
17 | CCOC(=O)N(c1ccc(Cl)cc1)N1CCN(c2cc(C(C)C)c(O)c(C(C)C)c2)CC1 [Cpd-65] | 10 to 20 | 0.92 to 1.17 | 11.30 to 16.67 | 101.42 to 123.97 | 10 to 20
18 | CCOC(=O)N(c1cccc(OC)c1)N1CCN(c2cc(C(C)C)c(O)c([C@H](C)C3CC3)c2)CC1 [Cpd-71] | 10 to 20 | 0.55 | 17.52 | 37.65 | –

— patent US20260217651A1 (priority 2022, published 2026)
